*1 amine or outer side, *2 acyl side, *3 side chain or, on linkers, in order; H or OH if unused. Where a SMILES comes first, the peptide text is derived from it. Bridges are numbered along the chain shown (N, C = ends). oXylylene = c1ccc(C[*:2])c(C[*:1])c1
These compounds were tested against T1, Human Fibroblast Activation Protein (FAP) (Homo sapiens, UniProt Q12884) (assay: Enzyme inhibition assay against human FAP (substrate Z-GP-AMC), Example 1). Conditions: human FAP 5 ng/well, 50 μM Z-GP-AMC; Ki from IC50 by Cheng-Prusoff.
T1 sequence (Q12884 1-760): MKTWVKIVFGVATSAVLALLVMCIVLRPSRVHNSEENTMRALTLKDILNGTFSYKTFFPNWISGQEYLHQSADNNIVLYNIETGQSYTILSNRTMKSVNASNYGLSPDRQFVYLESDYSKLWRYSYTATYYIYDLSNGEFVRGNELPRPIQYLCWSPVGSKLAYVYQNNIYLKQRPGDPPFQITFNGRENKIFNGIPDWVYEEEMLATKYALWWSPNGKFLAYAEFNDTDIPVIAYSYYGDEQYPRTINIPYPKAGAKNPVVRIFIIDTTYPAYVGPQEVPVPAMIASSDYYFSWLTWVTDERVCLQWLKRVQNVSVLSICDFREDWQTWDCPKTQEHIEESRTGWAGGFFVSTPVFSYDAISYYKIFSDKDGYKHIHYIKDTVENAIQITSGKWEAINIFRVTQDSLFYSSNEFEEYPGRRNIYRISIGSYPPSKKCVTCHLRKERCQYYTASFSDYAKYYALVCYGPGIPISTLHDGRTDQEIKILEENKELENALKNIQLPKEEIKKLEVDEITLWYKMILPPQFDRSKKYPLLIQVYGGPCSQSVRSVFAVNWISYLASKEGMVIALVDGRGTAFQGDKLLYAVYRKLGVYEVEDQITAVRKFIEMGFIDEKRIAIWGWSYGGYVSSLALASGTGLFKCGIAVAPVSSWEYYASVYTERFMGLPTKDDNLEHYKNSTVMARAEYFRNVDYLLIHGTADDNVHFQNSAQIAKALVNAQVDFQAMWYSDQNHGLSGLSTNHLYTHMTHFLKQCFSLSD
Type: biochemical
Experimental: Binding Affinity Against Human Fibroblast Activation Protein (FAP)
An enzyme inhibition assay was performed to determine IC50 values and then the Cheng-Prusoff equation used to calculate the Ki given a known Km of the substrate Z-GP-AMC for FAP. To perform the assay, FAP (5 ng/well) and the test peptide at varying concentrations (i.e. 10^−6 to 10^−12) were incubated in a black 96-well plate for 10 minutes at RT on a shaker plate. Then, the substrate Z-GP-AMC was added to give a final concentration of 50 μM. The total reaction volume per well was 100 μL The reaction was allowed to incubate at RT on a shaker plate for 1 hour protected from light, and then fluorescence read with a BioTek Synergy LX plate reader at an ex/em (360/40 and 460/40). Experiments were performed in at least duplicate, and controls of buffer only, buffer and FAP enzyme, and buffer with substrate and FAP enzyme only were included for comparison. The buffer used for the assay was 50 mM Tris-HCl, 1M NaCl, and 1 mg/mL BSA, pH=7.5. Data was plotted in GraphPad Prism and non-linear regression used to calculate IC50 values. The compounds tested and Ki values of each were as follows: […]

In order of rising Ki:
1. C[C@@H]1NC(=O)[C@H](CCC(=O)O)NC(=O)[C@H](Cc2ccccc2)NC(=O)[C@@H]2CCCN2C(=O)[C@H]([C@@H](C)O)NC(=O)[C@@H](NC(=O)[C@@H](N)CO)CSCc2ccccc2CSC[C@@H](C(N)=O)NC(=O)[C@H](Cc2c[nH]c3ccccc23)NC(=O)[C@H](Cc2c[nH]c3ccccc23)NC1=O [VMT-FAP-2-23, S[C(oXdB)TPFEAWWC]-NH2] (H-SCTPFEAWWC-NH2; linker 2-10 via oXylylene; N-terminus assumed)  0.29 nM
2. CC(=O)N[C@@H](CC(=O)O)C(=O)N[C@H]1CSCc2ccccc2CSC[C@@H](C(N)=O)NC(=O)[C@H](Cc2c[nH]c3ccccc23)NC(=O)[C@H](Cc2c[nH]c3ccccc23)NC(=O)[C@H](CCC(N)=O)NC(=O)[C@H](CCC(=O)O)NC(=O)[C@H](Cc2ccccc2)NC(=O)[C@@H]2CCCN2C(=O)[C@H]([C@@H](C)O)NC1=O [VMT-FAP-1-14, Ac-D[C(oXdB)TPFEQWWC]-NH2] (Ac-DCTPFEQWWC-NH2; linker 2-10 via oXylylene)  0.36 nM
3. CC(=O)N[C@@H](CO)C(=O)N[C@H]1CSCc2ccccc2CSC[C@@H](C(N)=O)NC(=O)[C@H](Cc2c[nH]c3ccccc23)NC(=O)[C@H](Cc2c[nH]c3ccccc23)NC(=O)[C@H](CCC(=O)O)NC(=O)[C@H](CCC(=O)O)NC(=O)[C@H](Cc2ccccc2)NC(=O)[C@@H]2CCCN2C(=O)[C@H]([C@@H](C)O)NC1=O [VMT-FAP-1-105, Ac-S[C(oXdB)TPFEEWWC]-NH2] (Ac-SCTPFEEWWC-NH2; linker 2-10 via oXylylene)  0.38 nM
4. C[C@H](N)C(=O)N[C@H]1CSCc2ccccc2CSC[C@@H](C(N)=O)NC(=O)[C@H](Cc2c[nH]c3ccccc23)NC(=O)[C@H](Cc2c[nH]c3ccccc23)NC(=O)[C@H](CCC(N)=O)NC(=O)[C@H](CCC(=O)O)NC(=O)[C@H](Cc2ccccc2)NC(=O)[C@@H]2CCCN2C(=O)[C@H]([C@@H](C)O)NC1=O [VMT-FAP-2-19, A[C(oXdB)TPFEQWWC]-NH2] (H-ACTPFEQWWC-NH2; linker 2-10 via oXylylene; N-terminus assumed)  0.45 nM
5. CC(=O)N[C@@H](CC(N)=O)C(=O)N[C@H]1CSCc2ccccc2CSC[C@@H](C(N)=O)NC(=O)[C@H](Cc2c[nH]c3ccccc23)NC(=O)[C@H](Cc2c[nH]c3ccccc23)NC(=O)[C@H](CCC(N)=O)NC(=O)[C@H](CCC(=O)O)NC(=O)[C@H](Cc2c[nH]c3ccccc23)NC(=O)[C@@H]2CCCN2C(=O)[C@H]([C@@H](C)O)NC1=O [VMT-FAP-1-62, Ac-N[C(oXdB)TPWEQWWC]-NH2] (Ac-NCTPWEQWWC-NH2; linker 2-10 via oXylylene)  0.46 nM
6. CC(=O)N[C@@H](CO)C(=O)N[C@H]1CSCc2ccccc2CSC[C@@H](C(N)=O)NC(=O)[C@H](Cc2c[nH]c3ccccc23)NC(=O)[C@H](Cc2c[nH]c3ccccc23)NC(=O)[C@H](CCC(N)=O)NC(=O)[C@H](CCC(=O)O)NC(=O)[C@H](Cc2ccccc2)NC(=O)[C@@H]2CCCN2C(=O)[C@H]([C@@H](C)O)NC1=O [VMT-FAP-2-12, Ac-S[C(oXdB)TPFEQWWC]-NH2] (Ac-SCTPFEQWWC-NH2; linker 2-10 via oXylylene)  0.55 nM
7. CC(=O)N[C@@H](CO)C(=O)N[C@H]1CSCc2ccccc2CSC[C@@H](C(N)=O)NC(=O)[C@H](Cc2c[nH]c3ccccc23)NC(=O)[C@H](Cc2c[nH]c3ccccc23)NC(=O)[C@H](CC(=O)O)NC(=O)[C@H](CCC(=O)O)NC(=O)[C@H](Cc2ccccc2)NC(=O)[C@@H]2CCCN2C(=O)[C@H]([C@@H](C)O)NC1=O [VMT-FAP-1-104, Ac-S[C(oXdB)TPFEDWWC]-NH2] (Ac-SCTPFEDWWC-NH2; linker 2-10 via oXylylene)  1.83 nM
8. CC(=O)N[C@@H](CO)C(=O)N[C@H]1CSCc2ccccc2CSC[C@@H](C(N)=O)NC(=O)[C@H](Cc2ccc(O)cc2)NC(=O)[C@H](Cc2c[nH]c3ccccc23)NC(=O)[C@H](CCC(N)=O)NC(=O)[C@H](CCC(=O)O)NC(=O)[C@H](Cc2ccccc2)NC(=O)[C@@H]2CCCN2C(=O)[C@H]([C@@H](C)O)NC1=O [VMT-FAP-2-28, Ac-S[C(oXdB)TPFEQWYC]-NH2] (Ac-SCTPFEQWYC-NH2; linker 2-10 via oXylylene)  2.29 nM
9. CC(=O)N[C@@H](CCCNC(=N)N)C(=O)N[C@H]1CSCc2ccccc2CSC[C@@H](C(N)=O)NC(=O)[C@H](Cc2c[nH]c3ccccc23)NC(=O)[C@H](Cc2c[nH]c3ccccc23)NC(=O)[C@H](CCC(N)=O)NC(=O)[C@H](CCC(=O)O)NC(=O)[C@H](Cc2ccccc2)NC(=O)[C@@H]2CCCN2C(=O)[C@H]([C@@H](C)O)NC1=O [VMT-FAP-1-13, Ac-R[C(oXdB)TPFEQWWC]-NH2] (Ac-RCTPFEQWWC-NH2; linker 2-10 via oXylylene)  2.82 nM
10. CC[C@H](C)[C@@H]1NC(=O)[C@H](CCC(=O)O)NC(=O)[C@H](Cc2ccccc2)NC(=O)[C@@H]2CCCN2C(=O)[C@H]([C@@H](C)O)NC(=O)[C@@H](NC(=O)[C@H](CO)NC(C)=O)CSCc2ccccc2CSC[C@@H](C(N)=O)NC(=O)[C@H](Cc2c[nH]c3ccccc23)NC(=O)[C@H](Cc2c[nH]c3ccccc23)NC1=O [VMT-FAP-1-94, Ac-S[C(oXdB)TPFEIWWC]-NH2] (Ac-SCTPFEIWWC-NH2; linker 2-10 via oXylylene)  5.01 nM
11. CC(=O)NCC(=O)N[C@H]1CSCc2ccccc2CSC[C@@H](C(N)=O)NC(=O)[C@H](Cc2c[nH]c3ccccc23)NC(=O)[C@H](Cc2c[nH]c3ccccc23)NC(=O)[C@H](CCC(N)=O)NC(=O)[C@H](CCC(=O)O)NC(=O)[C@H](Cc2ccccc2)NC(=O)[C@@H]2CCCN2C(=O)[C@H]([C@@H](C)O)NC1=O [VMT-FAP-1-1, Ac-G[C(oXdB)TPFEQWWC]-NH2] (Ac-GCTPFEQWWC-NH2; linker 2-10 via oXylylene)  10.4 nM
12. CC(=O)N[C@@H](CC(N)=O)C(=O)N[C@H]1CSCc2ccccc2CSC[C@@H](C(N)=O)NC(=O)[C@H](Cc2c[nH]c3ccccc23)NC(=O)[C@H](Cc2c[nH]c3ccccc23)NC(=O)[C@H](CCC(N)=O)NC(=O)[C@H](CCC(=O)O)NC(=O)[C@H](Cc2ccccc2)NC(=O)[C@@H]2CCCN2C(=O)[C@H]([C@@H](C)O)NC1=O [VMT-FAP-1-17, Ac-N[C(oXdB)TPFEQWWC]-NH2] (Ac-NCTPFEQWWC-NH2; linker 2-10 via oXylylene)  10.7 nM
13. CC(=O)N[C@@H](CC(N)=O)C(=O)N[C@H]1CSCc2ccccc2CSC[C@@H](C(N)=O)NC(=O)[C@H](Cc2c[nH]c3ccccc23)NC(=O)[C@H](Cc2c[nH]c3ccccc23)NC(=O)[C@H](CCC(N)=O)NC(=O)[C@H](CCC(=O)O)NC(=O)[C@H](Cc2c[nH]cn2)NC(=O)[C@@H]2CCCN2C(=O)[C@H]([C@@H](C)O)NC1=O [VMT-FAP-1-64, Ac-N[C(oXdB)TPHEQWWC]-NH2] (Ac-NCTPHEQWWC-NH2; linker 2-10 via oXylylene)  10.7 nM
14. CC(=O)N[C@@H](CO)C(=O)N[C@H]1CSCc2ccccc2CSC[C@@H](C(N)=O)NC(=O)[C@H](Cc2c[nH]c3ccccc23)NC(=O)[C@H](Cc2c[nH]c3ccccc23)NC(=O)[C@H](Cc2c[nH]cn2)NC(=O)[C@H](CCC(=O)O)NC(=O)[C@H](Cc2ccccc2)NC(=O)[C@@H]2CCCN2C(=O)[C@H]([C@@H](C)O)NC1=O [VMT-FAP-1-101, Ac-S[C(oXdB)TPFEHWWC]-NH2] (Ac-SCTPFEHWWC-NH2; linker 2-10 via oXylylene)  11.2 nM
